Results reported in ChEMBL document CHEMBL1201861, “Genomics of Drug Sensitity in Cancer screening data, Wellcome Trust Sanger Institute”.

Assays:
Assay in all cases: cells
KG-1 = type: functional, cell-based; details: Homo sapiens;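 also: growth inhibition of KG-1 cells, read out by a cell viability assay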
Description: SANGER: Inhibition of human KG-1 cell growth in a cell viability assay.

KALS-1 = type: functional, cell-based, Homo sapiens; details: Homo sapiens, KALS-1;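 also: growth inhibition of KALS-1 cells, determined with a cell viability assay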
Description: SANGER: Inhibition of human KALS-1 cell growth in a cell viability assay.

LB771-HNC = type: functional, cell-based, Homo sapiens; details: Homo sapiens, LB771-HNC;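 also: growth inhibition of LB771-HNC human cells, read out with a cell viability assay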
Description: SANGER: Inhibition of human LB771-HNC cell growth in a cell viability assay.

CAS-1 = type: functional, cell-based, Homo sapiens; details: Homo sapiens, CAS-1;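 also: growth inhibition of CAS-1 cells, measured with a cell viability assay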
Description: SANGER: Inhibition of human CAS-1 cell growth in a cell viability assay.

K5 = type: functional, cell-based, Homo sapiens; details: Homo sapiens, K5
Description: SANGER: Inhibition of human K5 cell growth in a cell viability assay.

KS-1 = type: functional, cell-based, Homo sapiens; details: Homo sapiens, KS-1;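 also: growth inhibition of KS-1 cells, read out with a cell viability assay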
Description: SANGER: Inhibition of human KS-1 cell growth in a cell viability assay.

NKM-1 = type: functional, cell-based; details: Homo sapiens;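 also: growth inhibition of NKM-1 cells, read out with a cell viability assay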
Description: SANGER: Inhibition of human NKM-1 cell growth in a cell viability assay.

NCI-H747 = type: functional, cell-based; details: Homo sapiens;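 also: growth inhibition of human NCI-H747 cells, read out by a cell viability assay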
Description: SANGER: Inhibition of human NCI-H747 cell growth in a cell viability assay.

KE-37 = type: functional, cell-based; details: Homo sapiens;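 also: growth inhibition of KE-37 cells, read out with a cell viability assay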
Description: SANGER: Inhibition of human KE-37 cell growth in a cell viability assay.

NCI-H23 = type: functional, cell-based, Homo sapiens; details: Homo sapiens, NCI-H23;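 also: cell viability assay measuring growth inhibition of NCI-H23 cells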
Description: SANGER: Inhibition of human NCI-H23 cell growth in a cell viability assay.

RH-1 = type: functional, cell-based, Homo sapiens; details: Homo sapiens, RH-1;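 also: growth inhibition of human RH-1 cells, read out with a cell viability assay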
Description: SANGER: Inhibition of human RH-1 cell growth in a cell viability assay.

ES5 = type: functional, cell-based, Homo sapiens; details: Homo sapiens, ES5;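 also: growth inhibition of human ES5 cells, read out by a cell viability assay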
Description: SANGER: Inhibition of human ES5 cell growth in a cell viability assay.

ES3 = type: functional, cell-based, Homo sapiens; details: Homo sapiens, ES3;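 also: growth inhibition of ES3 cells, read out with a cell viability assay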
Description: SANGER: Inhibition of human ES3 cell growth in a cell viability assay.

SF-268 = type: functional, cell-based, Homo sapiens; details: Homo sapiens, SF-268;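 also: growth inhibition of SF-268 cells determined with a cell viability assay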
Description: SANGER: Inhibition of human SF268 cell growth in a cell viability assay.

KY821 = type: functional, cell-based; details: Homo sapiens;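 also: growth inhibition of human KY821 cells, read out by a cell viability assay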
Description: SANGER: Inhibition of human KY821 cell growth in a cell viability assay.

NOMO-1 = type: functional, cell-based; details: Homo sapiens;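 also: growth inhibition of human NOMO-1 cells measured by a cell viability assay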
Description: SANGER: Inhibition of human NOMO-1 cell growth in a cell viability assay.

ONS-76 = type: functional, cell-based, Homo sapiens; details: Homo sapiens, ONS-76;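 also: growth inhibition of human ONS-76 cells, read out with a cell viability assay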
Description: SANGER: Inhibition of human ONS-76 cell growth in a cell viability assay.

RKO = type: functional, cell-based, Homo sapiens; details: Homo sapiens, RKO;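 also: growth inhibition of human RKO cells, read out with a cell viability assay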
Description: SANGER: Inhibition of human RKO cell growth in a cell viability assay.

MZ7-mel = type: functional, cell-based, Homo sapiens; details: Homo sapiens, MZ7-mel;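 also: growth inhibition of human MZ7-mel cells, measured by a cell viability assay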
Description: SANGER: Inhibition of human MZ7-mel cell growth in a cell viability assay.

LS-123 = type: functional, cell-based, Homo sapiens; details: Homo sapiens, LS-123
Description: SANGER: Inhibition of human LS-123 cell growth in a cell viability assay.

GAK = type: functional, cell-based, Homo sapiens; details: Homo sapiens, GAK;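 also: cell growth inhibition read out by a cell viability assay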
Description: SANGER: Inhibition of human GAK cell growth in a cell viability assay.

JAR = type: functional, cell-based, Homo sapiens; details: Homo sapiens, JAR;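 also: growth inhibition of human JAR cells determined with a cell viability assay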
Description: SANGER: Inhibition of human JAR cell growth in a cell viability assay.

NCI-H510A = type: functional, cell-based; details: Homo sapiens;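 also: growth inhibition of NCI-H510A cells, read out with a cell viability assay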
Description: SANGER: Inhibition of human NCI-H510A cell growth in a cell viability assay.

AM-38 = type: functional, cell-based, Homo sapiens; details: Homo sapiens, AM-38;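 also: growth inhibition of AM-38 cells of human origin, read out by a cell viability assay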
Description: SANGER: Inhibition of human AM-38 cell growth in a cell viability assay.

LNCaP-Clone-FGC = type: functional, cell-based, Homo sapiens; details: Homo sapiens, LNCaP-Clone-FGC
Description: SANGER: Inhibition of human LNCaP-Clone-FGC cell growth in a cell viability assay.

KGN = type: functional, cell-based, Homo sapiens; details: Homo sapiens, KGN;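 also: growth inhibition of KGN cells, read out with a cell viability assay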
Description: SANGER: Inhibition of human KGN cell growth in a cell viability assay.

RXF 393 = type: functional, cell-based; details: Homo sapiens;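 also: growth inhibition of human RXF 393 cells, read out with a cell viability assay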
Description: SANGER: Inhibition of human RXF393 cell growth in a cell viability assay.

TE-10 = type: functional, cell-based, Homo sapiens; details: Homo sapiens, TE-10;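 also: growth inhibition of TE-10 cells, measured by a cell viability assay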
Description: SANGER: Inhibition of human TE-10 cell growth in a cell viability assay.

| Structure (SMILES) | IC50 (KG-1) [nM] | IC50 (KALS-1) [nM] | IC50 (LB771-HNC) [nM] | IC50 (CAS-1) [nM] | IC50 (K5) [nM] | IC50 (KS-1) [nM] | IC50 (NKM-1) [nM] | IC50 (NCI-H747) [nM] | IC50 (KE-37) [nM] | IC50 (NCI-H23) [nM] | IC50 (RH-1) [nM] | IC50 (ES5) [nM] | IC50 (ES3) [nM] | IC50 (SF-268) [nM] | IC50 (KY821) [nM] | IC50 (NOMO-1) [nM] | IC50 (ONS-76) [nM] | IC50 (RKO) [nM] | IC50 (MZ7-mel) [nM] | IC50 (LS-123) [nM] | also measured |
| --- | --- | --- | --- | --- | --- | --- | --- | --- | --- | --- | --- | --- | --- | --- | --- | --- | --- | --- | --- | --- | --- |
| C=C1C(=O)O[C@@H]2C3O[C@]3(C)CC/C=C(\C)CC[C@@H]12 (some centres undefined) | > 5000 | > 5000 | > 5000 | > 5000 | > 5000 | > 5000 | > 5000 | > 5000 | > 5000 | > 5000 | > 5000 | > 5000 | > 5000 | > 5000 | > 5000 | > 5000 | > 5000 | > 5000 | > 5000 | > 5000 | IC50 (GAK): > 5000 nM; IC50 (JAR): > 5000 nM; IC50 (NCI-H510A): > 5000 nM; IC50 (AM-38): > 5000 nM; IC50 (LNCaP-Clone-FGC): > 5000 nM; IC50 (KGN): > 5000 nM; IC50 (RXF 393): > 5000 nM; IC50 (TE-10): > 5000 nM |
| CC1=C2C[C@H]3[C@@H](CC=C4C[C@@H](O)CC[C@@]43C)[C@@H]2CC[C@]12O[C@@H]1C[C@H](C)CN[C@H]1[C@H]2C [CYCLOPAMINE] | > 16000 | > 16000 | > 16000 | > 16000 | > 16000 | > 16000 | > 16000 | > 16000 | > 16000 | > 16000 | > 16000 | > 16000 | > 16000 | > 16000 | > 16000 | > 16000 | > 16000 | > 16000 | > 16000 | > 16000 | IC50 (GAK): > 16000 nM; IC50 (JAR): > 16000 nM; IC50 (NCI-H510A): > 16000 nM; IC50 (AM-38): > 16000 nM; IC50 (LNCaP-Clone-FGC): > 16000 nM; IC50 (KGN): > 16000 nM; IC50 (RXF 393): > 16000 nM; IC50 (TE-10): > 16000 nM |
| CS(=O)(=O)CCNCc1ccc(-c2ccc3ncnc(Nc4ccc(OCc5cccc(F)c5)c(Cl)c4)c3c2)o1 [LAPATINIB] | > 2000 | > 2000 | > 2000 | > 2000 | > 2000 | > 2000 | > 2000 | > 2000 | > 2000 | > 2000 | > 2000 | > 2000 | > 2000 | > 2000 | > 2000 | > 2000 | > 2000 | > 2000 | > 2000 | > 2000 | IC50 (JAR): > 2000 nM; IC50 (NCI-H510A): > 2000 nM; IC50 (AM-38): > 2000 nM; IC50 (LNCaP-Clone-FGC): > 2000 nM; IC50 (KGN): > 2000 nM; IC50 (RXF 393): > 2000 nM; IC50 (TE-10): > 2000 nM |
| CCc1nc(N)nc(N)c1-c1ccc(Cl)cc1 [PYRIMETHAMINE] | > 20000 | 12000 | > 20000 | > 20000 | > 20000 | > 20000 | > 20000 | > 20000 | 10200 | 6540 | > 20000 | > 20000 | > 20000 | 3600 | > 20000 | > 20000 | 9860 | > 20000 | 7560 | > 20000 | IC50 (GAK): > 20000 nM; IC50 (JAR): > 20000 nM; IC50 (NCI-H510A): > 20000 nM; IC50 (AM-38): > 20000 nM; IC50 (LNCaP-Clone-FGC): > 20000 nM; IC50 (KGN): > 20000 nM; IC50 (RXF 393): > 20000 nM; IC50 (TE-10): > 20000 nM |
| O=C(/C=C/c1ccccc1)NC(NC(=S)Nc1cccc2cccnc12)C(Cl)(Cl)Cl (centres undefined) [SALUBRINAL] | > 16000 | > 16000 | > 16000 | > 16000 | > 16000 | > 16000 | 10600 | > 16000 | 15300 | > 16000 | > 16000 | > 16000 | > 16000 | > 16000 | > 16000 | > 16000 | > 16000 | > 16000 | > 16000 | > 16000 | IC50 (GAK): > 16000 nM; IC50 (JAR): > 16000 nM; IC50 (NCI-H510A): 7040 nM; IC50 (AM-38): > 16000 nM; IC50 (LNCaP-Clone-FGC): > 16000 nM; IC50 (KGN): > 16000 nM; IC50 (RXF 393): > 16000 nM; IC50 (TE-10): > 16000 nM |
| CN1CCN(CCOc2cc(OC3CCOCC3)c3c(Nc4c(Cl)ccc5c4OCO5)ncnc3c2)CC1 [SARACATINIB] | […] | […] | […] | […] | […] | 1200 | […] | […] | […] | […] | […] | […] | […] | […] | […] | […] | […] | […] | […] | […] | IC50 (GAK): […]; IC50 (JAR): […]; IC50 (NCI-H510A): […]; IC50 (AM-38): […]; IC50 (LNCaP-Clone-FGC): […]; IC50 (KGN): 1280 nM; IC50 (RXF 393): 1240 nM; IC50 (TE-10): 1660 nM |
| CO[C@H]1C[C@@H]2CC[C@@H](C)[C@@](O)(O2)C(=O)C(=O)N2CCCC[C@H]2C(=O)O[C@H]([C@H](C)C[C@@H]2CC[C@@H](O)[C@H](OC)C2)CC(=O)[C@H](C)/C=C(\C)[C@@H](O)[C@@H](OC)C(=O)[C@H](C)C[C@H](C)/C=C/C=C/C=C/1C [SIROLIMUS] | > 100 | 6.56 | > 100 | > 100 | > 100 | 2.45 | > 100 | > 100 | 16.1 | > 100 | > 100 | > 100 | > 100 | > 100 | > 100 | > 100 | > 100 | 50.3 | > 100 | > 100 | IC50 (GAK): > 100 nM; IC50 (JAR): > 100 nM; IC50 (NCI-H510A): > 100 nM; IC50 (AM-38): > 100 nM; IC50 (LNCaP-Clone-FGC): > 100 nM; IC50 (KGN): 96.3 nM; IC50 (RXF 393): > 100 nM; IC50 (TE-10): 3.3 nM |
| CNC(=O)c1cc(Oc2ccc(NC(=O)Nc3ccc(Cl)c(C(F)(F)F)c3)cc2)ccn1 [SORAFENIB] | 1480 | […] | […] | […] | […] | 3880 | 74.2 | […] | […] | […] | […] | […] | […] | […] | […] | […] | […] | […] | 3660 | […] | IC50 (GAK): […]; IC50 (JAR): […]; IC50 (NCI-H510A): […]; IC50 (AM-38): […]; IC50 (LNCaP-Clone-FGC): […]; IC50 (KGN): […]; IC50 (RXF 393): […]; IC50 (TE-10): […] |
| CCC(=O)N1CCN(c2ccc(-n3c(=O)ccc4cnc5ccc(-c6cnc7ccccc7c6)cc5c43)cc2C(F)(F)F)CC1 [TORIN1] | > 1200 | 12 | 75.5 | > 1200 | 64 | 13.9 | 987 | 23.3 | 15.7 | 84.4 | 280 | > 1200 | > 1200 | 98.2 | 220 | 400 | 131 | 15.3 | 26.1 | 59.4 | IC50 (GAK): 31.9 nM; IC50 (JAR): 116 nM; IC50 (NCI-H510A): 772 nM; IC50 (AM-38): > 1200 nM; IC50 (LNCaP-Clone-FGC): > 1200 nM; IC50 (KGN): 13.6 nM; IC50 (RXF 393): 94.6 nM; IC50 (TE-10): 33.1 nM |
| Cc1cc(Nc2cc(N3CCN(C)CC3)nc(Sc3ccc(NC(=O)C4CC4)cc3)n2)n[nH]1 [TOZASERTIB] | […] | […] | […] | […] | […] | 238 | 1030 | […] | 521 | […] | […] | […] | […] | […] | […] | […] | 665 | 308 | […] | […] | IC50 (GAK): […]; IC50 (JAR): […]; IC50 (NCI-H510A): 438 nM; IC50 (AM-38): […]; IC50 (LNCaP-Clone-FGC): […]; IC50 (KGN): 900 nM; IC50 (RXF 393): […]; IC50 (TE-10): 1130 nM |
